The source of these data is US4389327A, “Use of selected 1,2-dihydro-1,2,4,5-tetrazines as oxygen-scavenging agents” (priority 1982, dated 1983).

Data set [1] is described as follows: Deoxygenation of air-saturated buffered distilled water (oxygen meter), time for removal of dissolved oxygen. To be noted: pH 9.5, about 25° C.; for T1/2, time required for removal of half of the dissolved oxygen: 2.4×10^-4 moles dissolved O2; for T9/10, time for removal of 90% of the oxygen: measured if under 10 minutes. How it is done:
Weighed amounts of this compound were placed in 100 ml volumetric flasks and diluted with deoxygenated, deionized water. Aliquots of this mixture were injected in the test cell as shown in Example 4.
Again, weighed amounts of this compound were placed in 100 ml volumetric flasks and diluted with deoxygenated, deionized water. Aliquots of this mixture were injected into the test cell as shown in Example 4.
These deoxygenation measurements were run in a one liter round bottom flask equipped with a small septum-covered side arm and a standard taper joint into which was inserted the probe of an oxygen meter (Model 54 made by Yellow Springs Instrument Co. of Yellow Springs, Ohio). For each test, the flask was filled with air-saturated, buffered (with Na2 CO3 /NaHCO3 to pH of 9.5) distilled water. The amount of dissolved O2 content in the water was 2.4×10^-4 moles.
After filling with water, the probe was inserted into the flask and a sample of the compound made in Examples 1, 2, or 3 was injected through the side arm.
The times required for removal of half of the dissolved oxygen were measured (T1/2). Also, the times for removal of 90% of the oxygen (T9/10) were also measured if under 10 minutes.

A short description of data set [2]: Water solubility (remark). It counts as physicochemical.
[3] abbreviates: amount of compound 2.4 × 10^-4 moles.
The mark [4] stands for this setting: amount of compound 7.2 × 10^-4 moles.
[5] abbreviates: amount of compound 12.0 × 10^-4 moles.

A value given as a limit tells only on which side of the number the result lay.

Regarding `CCC1=NN=C(CC)NN1` [3,6-diethyl-1,2-dihydro-1,2,4,5-tetrazine], the “T1/2, time required for removal of half of the dissolved oxygen” value (shortened to “T1/2, time required for removal”) turned out to be 7.5 min in data set [1] (setting [3]), 0.9 min in data set [1] (setting [4]) and 0.6 min in data set [1] (setting [5]). Further, the “T9/10, time for removal of 90% of the oxygen” value was determined as 1.5 min in data set [1] (setting [4]) and 0.9 min in data set [1] (setting [5]).
`CC1=NN=C(C)NN1` [3,6-dimethyl-1,2-dihydro-1,2,4,5-tetrazine]: in data set [1] (setting [4]), the “T1/2, time required for removal” value stood at 1.5 min and the “T9/10, time for removal of 90% of the oxygen” value was determined as 2.2 min. Besides, in data set [1] (setting [5]), the “T1/2, time required for removal” value is 0.12 min and the “T9/10, time for removal of 90% of the oxygen” value turned out to be 0.30 min.
For `c1ccc(C2=NNC(c3ccccc3)=NN2)cc1` [3,6-diphenyl-1,2-dihydro-1,2,4,5-tetrazine], the water solubility entry in data set [2] is “limited water solubility”. Besides, the “T1/2, time required for removal” value in data set [1] (setting [3]) worked out at 6 min.
Consider `NN` [hydrazine, reference compound], for which the “T1/2, time required for removal” value in data set [1] (setting [5]) is greater than 10 min.
